Source: US20250176602A1, “Composition for Proliferation of Bacteroides uniformis in the Intestinal Tract” (Asahi Group Holdings, Ltd., priority 2019, published 2025)

Assays:
[1] = Fatigue feeling mitigation test, VAS questionnaire after Aerobike exercise loading (Example 2); type: in vivo, human
Procedure: As test subjects, 21 healthy males at the ages of 20 to 49 who have exercise habits of conducting exercise with an intensity of 5 METs or more for 30 minutes or more once or twice a week and who can continue the exercise habits during the test period as well were selected.
Among the 21 test subjects, 10 test subjects were selected as an α-cyclodextrin (αCD) intake group, and the remaining 11 test subjects were selected as a placebo group. The test subjects themselves were not informed who belonged to which group.
Test Supplements (tablets) having compositions described in Table 1 below were used. One tablet of the test supplements was of about 250 mg.
Each test subject of the αCD intake group and the placebo group was asked to take in 3 tablets of the above test supplements once a day at any timing. That is, each test subject of the α-cyclodextrin intake group was asked to take in about 200 mg of α-cyclodextrin per day.
The intake period for the test supplements was set to 9 weeks, and change in gut flora was evaluated, a questionnaire on fatigue feeling was conducted, and change in travel time was evaluated, before the start of the intake, after 4-week intake, and after 8-week intake. Note that foods and beverages that are said to support sports and training, pharmaceutical products and quasi-pharmaceutical products that have recovery, prevention or amelioration of “fatigue”, “tiredness”, “physical strength” and/or “lassitude” as the indication and effects, as well as supplements in general (also including foods with functional claims and foods for specified health use) were prohibited to take in for 1 week counted from the date when the test subjects agreed to participate in the test and during the test period.
The test subjects were subjected to exercise loading (load intensity: at an intensity of 45% of the maximum exercise loading intensity of each test subject for 50 minutes) using Aerobike (trade mark) (manufactured by KONAMI Sports & Life Col., Ltd., model number AEROBIKE-75XLIII), before intake of the test supplements, after 4-week intake, and after 8-week intake. […] Regarding fatigue, a VAS (Visual Analogue Scale) questionnaire was conducted based on the VAS testing method for fatigue feeling established by Japanese Society of Fatigue Science, immediately after loading, 30 minutes after loading, and 60 minutes after loading, to investigate change in fatigue feeling with time. The items of the questionnaire were “general fatigue feeling”, “fatigue feeling of the legs”, “tension of the legs”, “general lassitude”, and “difficulty in breathing”, and the “best state (0 mm)” and the “worst state (100 mm)” in each item were based on criteria shown in Table 2. In each intake group, the amounts of change in measured value were evaluated after 4-week intake and after 8-week intake based on the measured value before intake. […] The significant test between the placebo group and the α-cyclodextrin (αCD) intake group for the general fatigue feeling was conducted by Student's t-test, and the result of the test was summarized as a graph in FIG. 2 (*: p<0.05). In addition, the results for the items “fatigue feeling of the legs”, “tension of the legs”, “general lassitude”, and “difficulty in breathing” were summarized in Table 3. In Table 3, the significant difference was studied by paired t-test for a comparison with before intake of αCD, and the significant test between the placebo group and the α-cyclodextrin (αCD) intake group was conducted by Student's t-test.

[2] = Exercise performance test, 10 km SPIN CYCLE travel time (Example 6); type: in vivo, human; settings: after 8-week intake, about 1000 mg/day; p<0.05
Procedure: As the test subjects, 86 healthy males at the ages of 20 to 49 who have exercise habits of conducting exercise with an intensity of 5 METs or more for 30 minutes or more once or twice a week and who can continue the exercise habits during the test period as well were selected.
Among the 86 test subjects, 43 test subjects were selected as an α-cyclodextrin (αCD) intake group, and the remaining 43 test subjects were selected as a placebo group. The test subjects themselves were not informed who belonged to which group.
Test Supplements (tablets) having compositions described in Table 4 below were used. One tablet of the test supplements was of about 600 mg.
Each test subject of the αCD intake group and the placebo group was asked to take in 4 tablets of the above test supplements once a day at any timing. That is, each test subject of the α-cyclodextrin intake group was asked to take in about 1000 mg of α-cyclodextrin per day.
The intake period for the test supplements was set to 8 weeks, and the heart rate during exercise was measured, before the start of the intake, after 4-week intake, and after 8-week intake to evaluate change in heart rate. In addition, a questionnaire on fatigue feeling was conducted before the start of the intake of the test supplements and after 8-week intake, and change in travel time was evaluated. […]

[3] = test system: Bacteroides, Bifidobacterium, and Lactobacillus; settings: obese mice given high-fat diets, fed α-cyclodextrin; cited from earlier work
[4] = 30 minutes after exercise, after 4-week intake, about 200 mg/day
[5] = 30 minutes after exercise, after 8-week intake, about 200 mg/day
[6] = 30 minutes after exercise, before intake
[7] = 60 minutes after exercise, after 4-week intake, about 200 mg/day
[8] = 60 minutes after exercise, after 8-week intake, about 200 mg/day
[9] = 60 minutes after exercise, before intake
[10] = immediately after exercise, after 4-week intake, about 200 mg/day
[11] = immediately after exercise, after 8-week intake, about 200 mg/day
[12] = immediately after exercise, before intake

OC[C@H]1O[C@@H]2O[C@H]3[C@H](O)[C@@H](O)[C@@H](O[C@H]4[C@H](O)[C@@H](O)[C@@H](O[C@H]5[C@H](O)[C@@H](O)[C@@H](O[C@H]6[C@H](O)[C@@H](O)[C@@H](O[C@H]7[C@H](O)[C@@H](O)[C@@H](O[C@H]1[C@H](O)[C@H]2O)O[C@@H]7CO)O[C@@H]6CO)O[C@@H]5CO)O[C@@H]4CO)O[C@@H]3CO [α-cyclodextrin]
VAS Difficulty in breathing [1, 4]: 17.727 ± 15.300 mm | VAS Fatigue feeling of the legs [1, 4]: 38.002 ± 21.474 mm | VAS General lassitude [1, 4]: 27.436 ± 16.724 * mm | VAS Tension of the legs [1, 4]: 38.015 ± 21.098 mm | VAS Difficulty in breathing [1, 5]: 16.498 ± 18.581 * mm | VAS Fatigue feeling of the legs [1, 5]: 28.636 ± 21.115 ** mm | VAS General lassitude [1, 5]: 24.728 ± 21.853 * mm | VAS Tension of the legs [1, 5]: 26.662 ± 21.491 ** mm | VAS Difficulty in breathing [1, 6]: 22.702 ± 23.028 mm | VAS Fatigue feeling of the legs [1, 6]: 42.045 ± 25.730 mm | VAS General lassitude [1, 6]: 39.689 ± 21.542 mm | VAS Tension of the legs [1, 6]: 41.674 ± 26.128 mm | VAS Difficulty in breathing [1, 7]: 16.907 ± 16.405 mm | VAS Fatigue feeling of the legs [1, 7]: 31.167 ± 20.034 mm | VAS General lassitude [1, 7]: 20.932 ± 16.099 mm | VAS Tension of the legs [1, 7]: 29.904 ± 19.297 mm | VAS Difficulty in breathing [1, 8]: 12.228 ± 15.335 mm | VAS Fatigue feeling of the legs [1, 8]: 22.603 ± 21.310 * mm | VAS General lassitude [1, 8]: 17.754 ± 19.279 * mm | VAS Tension of the legs [1, 8]: 22.193 ± 22.240 mm | VAS Difficulty in breathing [1, 9]: 16.882 ± 18.668 mm | VAS Fatigue feeling of the legs [1, 9]: 34.945 ± 26.504 mm | VAS General lassitude [1, 9]: 30.096 ± 20.702 mm | VAS Tension of the legs [1, 9]: 33.394 ± 26.250 mm | general fatigue feeling after the exercise (VAS), change vs before intake, compared with placebo group ([1]; about 200 mg/day, after 4-week and 8-week intake, p<0.05): significantly decreased | VAS Difficulty in breathing [1, 10]: 30.597 ± 21.390 * mm | VAS Fatigue feeling of the legs [1, 10]: 60.911 ± 21.493 mm | VAS General lassitude [1, 10]: 41.464 ± 17.587 mm | VAS Tension of the legs [1, 10]: 58.542 ± 25.137 mm | VAS Difficulty in breathing [1, 11]: 29.033 ± 20.173 ** mm | VAS Fatigue feeling of the legs [1, 11]: 54.009 ± 23.092 mm | VAS General lassitude [1, 11]: 39.053 ± 21.314 * mm | VAS Tension of the legs [1, 11]: 55.137 ± 24.253 mm | VAS Difficulty in breathing [1, 12]: 44.516 ± 19.027 mm | VAS Fatigue feeling of the legs [1, 12]: 53.304 ± 25.421 mm | VAS General lassitude [1, 12]: 51.306 ± 20.273 mm | VAS Tension of the legs [1, 12]: 59.341 ± 24.644 mm | travel time for 10 km, change vs before intake, compared with placebo group [2]: significantly less | accumulation of fat [3]: reductions in accumulation of fat | total bacterial cell numbers of Bacteroides, Bifidobacterium, and Lactobacillus in the intestinal tracts [3]: suppress decreases
